The results in this text go back to patent US11999727B2 (Tango Therapeutics, Inc., priority 2020, dated 2024).

The target in test [1] is T1, PRMT5 (Homo sapiens, UniProt O14744).
T1 construct: purchased Viva (custom protein)
Put plainly: PRMT5 biochemical IC50 assay with no cofactor. As to conditions: PRMT5, no cofactor; read-out: No Cofactor/ rel IC50. The source says: Table 1 indicates IC50 values (μM) against PRMT5 for exemplary compounds in the presence of SAM as cofactor, with no cofactor, and with MTA as cofactor, respectively (columns 4-6). […] Ki values can be calculated from the IC50 values as described in the Examples section. As detailed in the Examples section, for the assay performed in the presence of SAM, IC50=Ki×1.5 (Ki=IC50/1.5).

Test [2] deals with HAP1 MTAP-deleted cell line. Put plainly: SDMA in-cell western assay, HAP1 MTAP-deleted. In kind it is cell-based. As to conditions: for IC50: Homo sapiens, HAP1, SDMA in-cell western, HAP1 MTAP-deleted, read-out: HAP 1 MTAP deleted IC50; for MTAP intact/deleted ratio: IC50 ratio HAP1 MTAP-intact / HAP1 MTAP-deleted, SDMA in-cell western. In outline:
(§1)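 Compounds were tested in HAP1 cells differing only in MTAP status (endogenous expression versus null). Cellular SDMA levels were then measured by in-cell western, giving an IC50 in each background.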

Test [3] relates to HAP1 MTAP-intact cell line. Put plainly: SDMA in-cell western assay, HAP1 MTAP-intact. The conditions noted are these: Homo sapiens, HAP1, SDMA in-cell western, HAP1 MTAP-intact; read-out: MTAP HAP1 intact IC50. In kind it is cell-based. In short, it runs like this:
as §1

For test [4], the target named is T1, PRMT5. In words: PRMT5 biochemical IC50 assay with SAM as cofactor. As to conditions: PRMT5, SAM as cofactor; read-out: SAM IC50.
Test [5] deals with HAP1 MTAP-deleted cell line. Put plainly: Viability assay, MTAP-deleted cell line. Format: cell-based. As to conditions: Homo sapiens, HAP1, viability, HAP1 MTAP-deleted cell line; read-out: HAP1 MTAP deleted viability. An excerpt: Table 1 additionally indicates IC50 values in a viability assay for the MTAP-deleted cell line (column 10), indicating the effect of treatment with compound on cell survival.

Test [6] has as its target T1, PRMT5. Put plainly: PRMT5 biochemical IC50 assay with MTA as cofactor. The conditions noted are these: PRMT5, MTA as cofactor; read-out: MTA IC50.

T1 sequence (O14744 whole entry): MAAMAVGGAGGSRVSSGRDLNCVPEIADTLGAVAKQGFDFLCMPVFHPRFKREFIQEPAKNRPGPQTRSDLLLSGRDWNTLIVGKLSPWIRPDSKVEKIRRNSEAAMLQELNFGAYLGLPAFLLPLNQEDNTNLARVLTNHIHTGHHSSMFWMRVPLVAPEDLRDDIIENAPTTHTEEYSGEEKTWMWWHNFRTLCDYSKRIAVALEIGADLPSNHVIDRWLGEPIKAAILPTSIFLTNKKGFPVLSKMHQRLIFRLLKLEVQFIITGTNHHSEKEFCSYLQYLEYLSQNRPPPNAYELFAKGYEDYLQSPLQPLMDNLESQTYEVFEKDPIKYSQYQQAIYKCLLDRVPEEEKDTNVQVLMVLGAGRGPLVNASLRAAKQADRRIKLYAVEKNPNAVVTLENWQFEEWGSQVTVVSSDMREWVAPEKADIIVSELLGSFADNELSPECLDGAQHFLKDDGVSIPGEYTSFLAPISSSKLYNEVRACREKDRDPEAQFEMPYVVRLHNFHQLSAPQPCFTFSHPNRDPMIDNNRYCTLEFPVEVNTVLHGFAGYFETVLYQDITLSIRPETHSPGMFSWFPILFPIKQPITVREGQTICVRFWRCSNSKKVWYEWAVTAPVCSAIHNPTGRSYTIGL
T1 sequence (Q9BQA1 whole entry partner): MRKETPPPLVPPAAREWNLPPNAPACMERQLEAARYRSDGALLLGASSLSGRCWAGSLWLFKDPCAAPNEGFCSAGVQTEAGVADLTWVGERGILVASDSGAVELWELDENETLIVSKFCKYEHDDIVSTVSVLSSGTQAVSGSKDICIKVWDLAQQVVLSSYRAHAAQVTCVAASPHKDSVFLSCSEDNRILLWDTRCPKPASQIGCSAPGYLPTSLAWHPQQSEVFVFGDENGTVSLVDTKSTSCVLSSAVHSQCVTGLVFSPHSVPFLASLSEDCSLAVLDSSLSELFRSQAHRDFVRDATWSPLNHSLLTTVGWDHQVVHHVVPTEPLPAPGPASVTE

In the case of `CCc1cc(NC(=O)C(=O)N2C[C@@H](C)CC[C@@H]2c2ccc3sc([C@@H]4[C@@H]5CN(C)C[C@@H]54)nc3c2)cnc1N` [Compound 1366, N-(6-amino-5-ethylpyridin-3-yl)-2-((2R,5S)-5-methyl-2-(2-((1R,5S,6s)-3-methyl-3-azabicyclo[3.1.0]hexan-6-yl)benzo[d]thiazol-5-yl)piperidin-1-yl)-2-oxoacetamide], the IC50 in test [1] was under 0.05 µM; in test [2], under 0.1 µM; in test [3], under 0.1 µM; in test [4] it was under 0.05 µM; in test [5] it was under 1 µM; in test [6], under 0.05 µM. Moreover, the “MTAP intact/deleted ratio” value in test [2] is given as “A (an IC50 ratio greater than or equal to 10 fold)”.

With `CCc1cc(NC(=O)C(=O)N2C[C@@H](C)CC[C@@H]2c2cccc(N3CCN(C)CC3)c2)cnc1N` [Compound 1367, N-(6-amino-5-ethylpyridin-3-yl)-2-((2R,5S)-5-methyl-2-(3-(4-methylpiperazin-1-yl)phenyl)piperidin-1-yl)-2-oxoacetamide], the IC50 in test [1] is under 0.05 µM; in test [2], under 0.1 µM; in test [3], 0.1 to 1 µM; in test [4] it was under 0.05 µM; in test [5], under 1 µM; in test [6], under 0.05 µM. Further, in test [2], the “MTAP intact/deleted ratio” value was “A (an IC50 ratio greater than or equal to 10 fold)”.

Turning to `CCc1cc(NC(=O)C(=O)N2C[C@@H](C)CC[C@@H]2c2ccc3cc(C)c(C4CCN(C)CC4)nc3c2)cnc1N` [Compound 1368, N-(6-amino-5-ethyl-3-pyridyl)-2-oxo-2-[(2R,5S)-5-methyl-2-[3-methyl-2-(1-methyl-4-piperidyl)-7-quinolyl]-1-piperidyl]acetamide], the IC50 was under 0.05 µM in test [1]; under 0.1 µM in test [2]; under 0.1 µM in test [3]; 0.05 to 0.5 µM in test [4]; under 1 µM in test [5]; under 0.05 µM in test [6]. In test [2], the “MTAP intact/deleted ratio” value is reported as “A (an IC50 ratio greater than or equal to 10 fold)”.

In the case of `CCc1cc(NC(=O)C(=O)N2C[C@@H](C)CC[C@@H]2c2ccc3sc(C45CC(C4)N(C)C5)nc3c2)cnc1N` [Compound 1372], the IC50 in test [1] is under 0.05 µM; in test [2], under 0.1 µM; in test [3] it was under 0.1 µM; in test [4], under 0.05 µM; in test [5] it was under 1 µM; in test [6] it was under 0.05 µM. The “MTAP intact/deleted ratio” value in test [2] is listed as “A (an IC50 ratio greater than or equal to 10 fold)”.

Regarding `Cc1cc(NC(=O)C(=O)N2C[C@@H](C)CC[C@@H]2c2ccc3sc(C4CCN(CC(F)F)CC4)nc3c2)cnc1N` [Compound 1377, N-(6-amino-5-methylpyridin-3-yl)-2-((2R,5S)-2-(2-(1-(2,2-difluoroethyl)piperidin-4-yl)benzo[d]thiazol-5-yl)-5-methylpiperidin-1-yl)-2-oxoacetamide], the IC50 in test [1] is under 0.05 µM; in test [2] it was under 0.1 µM; in test [3] it was 0.1 to 1 µM; in test [4] it was 0.05 to 0.5 µM; in test [5], under 1 µM; in test [6], under 0.05 µM. Also, in test [2], the “MTAP intact/deleted ratio” value is listed as “A (an IC50 ratio greater than or equal to 10 fold)”.

On to `C[C@H]1CC[C@H](c2ccc3sc(CCN4CCCC4)nc3c2)N(C(=O)C(=O)Nc2cnc(N)c(C3COC3)c2)C1` [Compound 1379, N-(6-amino-5-(oxetan-3-yl)pyridin-3-yl)-2-((2R,5S)-5-methyl-2-(2-(2-(pyrrolidin-1-yl)ethyl)benzo[d]thiazol-5-yl)piperidin-1-yl)-2-oxoacetamide], for which the IC50 in test [1] is 0.05 to 0.5 µM; in test [2], under 0.1 µM; in test [3], under 0.1 µM; in test [4] it was 0.05 to 0.5 µM; in test [5], under 1 µM; in test [6], under 0.05 µM. In addition, in test [2], the “MTAP intact/deleted ratio” value is given as “A (an IC50 ratio greater than or equal to 10 fold)”.

In the case of `CCc1cc(NC(=O)C(=O)N2C[C@@H](C)CC[C@@H]2c2ccc3sc(CN(CC)C(C)C)nc3c2)cnc1N` [Compound 1380, N-(6-amino-5-ethylpyridin-3-yl)-2-((2R,5S)-2-(2-((ethyl(isopropyl)amino)methyl)benzo[d]thiazol-5-yl)-5-methylpiperidin-1-yl)-2-oxoacetamide], the IC50 in test [1] was under 0.05 µM; in test [2] it was under 0.1 µM; in test [3] it was 0.1 to 1 µM; in test [4], 0.05 to 0.5 µM; in test [5], under 1 µM; in test [6] it was under 0.05 µM. In test [2], the “MTAP intact/deleted ratio” value is on record as “A (an IC50 ratio greater than or equal to 10 fold)”.

`CCc1cc(NC(=O)C(=O)N2C[C@@H](C)CC[C@@H]2c2ccc3sc(C4CCN(C)CC4C)nc3c2)cnc1N` (stereo partly drawn) [Compound 1382, N-(6-amino-5-ethyl-3-pyridyl)-2-[(5S)-2-[2-(1,3-dimethyl-4-piperidyl)-1,3-benzothiazol-5-yl]-5-methyl-1-piperidyl]-2-oxo-acetamide]: the IC50 in test [1] was under 0.05 µM; in test [2], under 0.1 µM; in test [3], under 0.1 µM; in test [4] it was under 0.05 µM; in test [5], under 1 µM; in test [6], under 0.05 µM. The “MTAP intact/deleted ratio” value in test [2] was “A (an IC50 ratio greater than or equal to 10 fold)”.

As to `CCc1cc(NC(=O)C(=O)N2C[C@@H](C)CC[C@@H]2c2ccc3sc(C4CCN(C)C4)nc3c2)cnc1N` (some centres unmarked) [Compound 1383], the IC50 in test [1] was under 0.05 µM; in test [2] it was under 0.1 µM; in test [3], under 0.1 µM; in test [4], under 0.05 µM; in test [5] it was under 1 µM; in test [6], under 0.05 µM. Also, the “MTAP intact/deleted ratio” value in test [2] is given as “A (an IC50 ratio greater than or equal to 10 fold)”.

In the case of `CCc1cc(NC(=O)C(=O)N2C[C@@H](C)CC[C@@H]2c2ccc3sc([C@H]4CN(C)C(=O)CN4C)nc3c2)cnc1N` [Compound 1385], the IC50 in test [1] is under 0.05 µM; in test [2], under 0.1 µM; in test [3], under 0.1 µM; in test [4], 0.05 to 0.5 µM; in test [5] it was under 1 µM; in test [6], under 0.05 µM. In test [2], the “MTAP intact/deleted ratio” value was “A (an IC50 ratio greater than or equal to 10 fold)”.

Turning to `Cc1cc(NC(=O)C(=O)N2C[C@@H](C)CC[C@@H]2c2ccc3sc(CCN4CCOCC4)nc3c2)cnc1N` [Compound 1387, N-(6-amino-5-methylpyridin-3-yl)-2-((2R,5S)-5-methyl-2-(2-(2-morpholinoethyl)benzo[d]thiazol-5-yl)piperidin-1-yl)-2-oxoacetamide], the IC50 in test [1] was under 0.05 µM; in test [2], under 0.1 µM; in test [3], under 0.1 µM; in test [4] it was 0.05 to 0.5 µM; in test [5], under 1 µM; in test [6], under 0.05 µM. The “MTAP intact/deleted ratio” value in test [2] is recorded as “B (an IC50 ratio greater than or equal to 3 fold but lower than 10 fold)”.

For the compound `CCc1cc(NC(=O)C(=O)N2C[C@@H](C)CC[C@@H]2c2ccc3sc([C@H]4CCCN(C)C4)nc3c2)cnc1N` [Compound 1388, N-(6-amino-5-ethylpyridin-3-yl)-2-((2R,5S)-5-methyl-2-(2-(1-methylpiperidin-3-yl)benzo[d]thiazol-5-yl)piperidin-1-yl)-2-oxoacetamide], the IC50 in test [1] is under 0.05 µM; in test [2], under 0.1 µM; in test [3], under 0.1 µM; in test [4] it was under 0.05 µM; in test [5] it was under 1 µM; in test [6], under 0.05 µM. Moreover, the “MTAP intact/deleted ratio” value in test [2] was “A (an IC50 ratio greater than or equal to 10 fold)”.

In the case of `CCc1cc(NC(=O)C(=O)N2C[C@@H](C)CC[C@@H]2c2ccc3sc(-c4ccnn4C)nc3c2)cnc1N` [Compound 1389, N-(6-amino-5-ethylpyridin-3-yl)-2-((2R,5S)-5-methyl-2-(2-(1-methyl-1H-pyrazol-5-yl)benzo[d]thiazol-5-yl)piperidin-1-yl)-2-oxoacetamide], the IC50 in test [1] was under 0.05 µM; in test [2], under 0.1 µM; in test [3], 0.1 to 1 µM; in test [4], 0.05 to 0.5 µM; in test [5], under 1 µM; in test [6] it was under 0.05 µM. In addition, the “MTAP intact/deleted ratio” value in test [2] was “A (an IC50 ratio greater than or equal to 10 fold)”.

`CCc1cc(NC(=O)C(=O)N2C[C@@H](C)CC[C@@H]2c2ccc(N3CCN(C)CC3)c(C)c2)cnc1N` [Compound 1390, N-(6-Amino-5-ethyl-3-pyridyl)-2-[(2R,5S)-5-methyl-2-[3-methyl-4-(4-methylpiperazin-1-yl)phenyl]-1-piperidyl]-2-oxo-acetamide]: the IC50 in test [1] was 0.05 to 0.5 µM; in test [2] it was under 0.1 µM; in test [3], 0.1 to 1 µM; in test [4] it was 0.05 to 0.5 µM; in test [5], under 1 µM; in test [6] it was under 0.05 µM. Moreover, in test [2], the “MTAP intact/deleted ratio” value is “A (an IC50 ratio greater than or equal to 10 fold)”.
